Measurements as given in PubChem BioAssay AID210 (DTP/NCI, 2004).
Toxic doses and inconclusive results are not listed. Rule for the calls: active = survival T/C of 150% or more; inactive = T/C below 125% in these data.

Test system: CD2F1 mice, ip Colon 26 adenocarcinoma, median survival T/C
Test: NCI In Vivo Anticancer Drug Screen. Data for tumor model Colon 26 Adenocarcinoma (intraperitoneal) in CD2F1 (CDF1) mice
Conditions: endpoint: median survival time, higher = longer survival
Description: The antitumor activity of compounds was measured in mice bearing transplantable tumors. Survival or tumor size were measured and the results are expressed as the measurement made in the treated group (T) divided by the measurement made in the vehicle treated control group (C). The tumor model used in this assay is Colon 26 Adenocarcinoma (intraperitoneal) in CD2F1 (CDF1) mice

Measured: T/C

N[C@@H](Cc1ccc(N(CCCl)CCCl)cc1)C(=O)O
active: dose: 1.0 mg/kg/injection, schedule: Q04DX002 (ip), vehicle: suspension in saline 162 % of control | dose: 1.25 mg/kg/injection, schedule: Q04DX003 (ip), vehicle: saline 175 % of control | dose: 2.0 mg/kg/injection, schedule: Q04DX002 (ip), vehicle: suspension in saline 231 % of control | dose: 2.5 mg/kg/injection, schedule: Q04DX003 (ip), vehicle: suspension in saline 181 % of control | dose: 4.0 mg/kg/injection, schedule: Q04DX002 (ip), vehicle: suspension in saline 249 % of control | dose: 5.0 mg/kg/injection, schedule: Q04DX003 (ip), vehicle: suspension in saline 186 % of control | dose: 8.0 mg/kg/injection, schedule: Q04DX002 (ip), vehicle: suspension in saline 277 % of control | dose: 10.0 mg/kg/injection, schedule: Q04DX003 (ip), vehicle: suspension in saline 182 % of control | dose: 16.0 mg/kg/injection, schedule: Q04DX002 (ip), vehicle: suspension in saline 226 % of control | dose: 20.0 mg/kg/injection, schedule: Q04DX003 (ip), vehicle: suspension in saline 216 % of control

COc1cc(NS(C)(=O)=O)ccc1Nc1c2ccccc2nc2ccccc12
active: dose: 4.0 mg/kg/injection, schedule: Q04DX002 (ip), vehicle: other 151 % of control | dose: 8.0 mg/kg/injection, schedule: Q04DX002 (ip), vehicle: other 185 % of control | dose: 8.0 mg/kg/injection, schedule: Q04DX003 (ip), vehicle: other 156 % of control | dose: 16.0 mg/kg/injection, schedule: Q04DX002 (ip), vehicle: other 240 % of control | dose: 16.0 mg/kg/injection, schedule: Q04DX003 (ip), vehicle: other 170 % of control
inactive: dose: 0.5 mg/kg/injection, schedule: Q04DX002 (ip), vehicle: other 111 % of control | dose: 0.5 mg/kg/injection, schedule: Q04DX003 (ip), vehicle: other 98 % of control | dose: 1.0 mg/kg/injection, schedule: Q04DX002 (ip), vehicle: other 119 % of control | dose: 1.0 mg/kg/injection, schedule: Q04DX003 (ip), vehicle: other 112 % of control | dose: 2.0 mg/kg/injection, schedule: Q04DX003 (ip), vehicle: other 117 % of control

COc1ccc(CC2C(=O)NC(C)C(=O)N(C)C3C(=O)N(C)C(Cc4ccc(O)c(c4)Oc4ccc(cc4)C3O)C(=O)NC(C)C(=O)NC(C)C(=O)N2C)cc1 (configuration not stated)
inactive: dose: 0.5 mg/kg/injection, schedule: Q04DX003 (ip), vehicle: saline 98 % of control | dose: 1.0 mg/kg/injection, schedule: Q04DX003 (ip), vehicle: saline 101 % of control | dose: 1.08 mg/kg/injection, schedule: Q04DX003 (ip), vehicle: other 91 % of control | dose: 1.8 mg/kg/injection, schedule: Q04DX003 (ip), vehicle: other 113 % of control | dose: 2.0 mg/kg/injection, schedule: Q04DX003 (ip), vehicle: saline 92 % of control | dose: 3.0 mg/kg/injection, schedule: Q04DX003 (ip), vehicle: other 120 % of control | dose: 5.0 mg/kg/injection, schedule: Q04DX003 (ip), vehicle: other 114 % of control

CN1C(=O)CC2(CCN(CCCC(=O)c3ccc(F)cc3)CC2)C1=O
inactive: dose: 3.12 mg/kg/injection, schedule: Q04DX003 (ip), vehicle: saline with Tween-80 96 % of control | dose: 6.25 mg/kg/injection, schedule: Q04DX003 (ip), vehicle: saline with Tween-80 98 % of control | dose: 12.5 mg/kg/injection, schedule: Q04DX003 (ip), vehicle: saline with Tween-80 100 % of control | dose: 25.0 mg/kg/injection, schedule: Q04DX003 (ip), vehicle: saline with Tween-80 100 % of control | dose: 50.0 mg/kg/injection, schedule: Q04DX003 (ip), vehicle: saline with Tween-80 102 % of control

CC(CN1CC(=O)NC(=O)C1)N1CC(=O)NC(=O)C1 (configuration not stated)
inactive: dose: 12.5 mg/kg/injection, schedule: Q04DX003 (ip), vehicle: Klucel (hydroxypropylcellulose) (HPC) 100 % of control | dose: 25.0 mg/kg/injection, schedule: Q04DX003 (ip), vehicle: Klucel (hydroxypropylcellulose) (HPC) 98 % of control | dose: 50.0 mg/kg/injection, schedule: Q04DX003 (ip), vehicle: Klucel (hydroxypropylcellulose) (HPC) 102 % of control

CC1OC(=O)C(C(C)C)NC(=O)C(C(C)C)OC(=O)C(C(C)C)NC(=O)C(C)OC(=O)C(C(C)C)NC(=O)C(C(C)C)OC(=O)C(C(C)C)NC(=O)C(C)OC(=O)C(C(C)C)NC(=O)C(C(C)C)OC(=O)C(C(C)C)NC1=O (configuration not stated)
active: dose: 0.75 mg/kg/injection, schedule: Q04DX003 (ip), vehicle: Klucel (hydroxypropylcellulose) (HPC) 181 % of control | dose: 1.5 mg/kg/injection, schedule: Q04DX003 (ip), vehicle: Klucel (hydroxypropylcellulose) (HPC) 186 % of control | dose: 3.0 mg/kg/injection, schedule: Q04DX003 (ip), vehicle: Klucel (hydroxypropylcellulose) (HPC) 200 % of control | dose: 6.0 mg/kg/injection, schedule: Q04DX003 (ip), vehicle: Klucel (hydroxypropylcellulose) (HPC) 193 % of control | dose: 12.0 mg/kg/injection, schedule: Q04DX003 (ip), vehicle: Klucel (hydroxypropylcellulose) (HPC) 165 % of control

Oc1cc2c3c(c1)c1cc4c(cc1c[n+]3CC2)OCO4
inactive: dose: 6.25 mg/kg/injection, schedule: Q04DX003 (ip), vehicle: distilled water + Tween-80 118 % of control | dose: 100.0 mg/kg/injection, schedule: Q04DX003 (ip), vehicle: distilled water + Tween-80 118 % of control

O=NN(CCCl)C(=O)NC1CCC(=O)NC1=O (configuration not stated)
active: dose: 2.8 mg/kg/injection, schedule: Q04DX003 (ip), vehicle: saline with Tween-80 243 % of control | dose: 5.1 mg/kg/injection, schedule: Q07DX002 (oral), vehicle: saline with Tween-80 179 % of control | dose: 5.1 mg/kg/injection, schedule: Q07DX003 (oral), vehicle: saline with Tween-80 224 % of control | dose: 5.1 mg/kg/injection, schedule: Q07DX004 (oral), vehicle: saline with Tween-80 215 % of control | dose: 5.2 mg/kg/injection, schedule: Q04DX003 (oral), vehicle: saline with Tween-80 269 % of control | dose: 5.6 mg/kg/injection, schedule: Q04DX003 (ip), vehicle: saline with Tween-80 269 % of control | dose: 7.7 mg/kg/injection, schedule: Q01DX001 (oral), vehicle: saline with Tween-80 165 % of control | dose: 7.7 mg/kg/injection, schedule: Q07DX002 (oral), vehicle: saline with Tween-80 204 % of control | dose: 7.7 mg/kg/injection, schedule: Q07DX003 (oral), vehicle: saline with Tween-80 250 % of control | dose: 7.7 mg/kg/injection, schedule: Q07DX004 (oral), vehicle: saline with Tween-80 265 % of control | dose: 8.5 mg/kg/injection, schedule: Q04DX003 (oral), vehicle: saline with Tween-80 280 % of control | dose: 11.25 mg/kg/injection, schedule: Q04DX003 (ip), vehicle: saline with Tween-80 269 % of control | dose: 11.5 mg/kg/injection, schedule: Q01DX001 (oral), vehicle: saline with Tween-80 189 % of control | dose: 11.5 mg/kg/injection, schedule: Q07DX002 (oral), vehicle: saline with Tween-80 251 % of control | dose: 11.5 mg/kg/injection, schedule: Q07DX003 (oral), vehicle: saline with Tween-80 255 % of control | dose: 11.5 mg/kg/injection, schedule: Q07DX004 (oral), vehicle: saline with Tween-80 369 % of control | dose: 13.6 mg/kg/injection, schedule: Q04DX003 (oral), vehicle: saline with Tween-80 307 % of control | dose: 17.4 mg/kg/injection, schedule: Q01DX001 (oral), vehicle: saline with Tween-80 189 % of control | dose: 17.4 mg/kg/injection, schedule: Q07DX002 (oral), vehicle: saline with Tween-80 230 % of control | dose: 17.4 mg/kg/injection, schedule: Q07DX003 (oral), vehicle: saline with Tween-80 369 % of control | dose: 17.4 mg/kg/injection, schedule: Q07DX004 (oral), vehicle: saline with Tween-80 261 % of control | dose: 26.0 mg/kg/injection, schedule: Q01DX001 (oral), vehicle: saline with Tween-80 210 % of control | dose: 26.0 mg/kg/injection, schedule: Q07DX002 (oral), vehicle: saline with Tween-80 405 % of control | dose: 26.0 mg/kg/injection, schedule: Q07DX003 (oral), vehicle: saline with Tween-80 184 % of control | dose: 39.0 mg/kg/injection, schedule: Q01DX001 (oral), vehicle: saline with Tween-80 278 % of control

Cc1c(N)nc([C@H](CC(N)=O)NC[C@H](N)C(N)=O)nc1C(=O)N[C@H](C(=O)N[C@H](C)[C@@H](O)[C@H](C)C(=O)N[C@H](C(=O)NCCc1nc(-c2nc(C(=O)NCCC[S+](C)C)cs2)cs1)[C@@H](C)O)C(OC1OC(CO)C(O)C(O)C1OC1OC(CO)C(O)C(OC(N)=O)C1O)c1cnc[nH]1 (some centres not stated)
inactive: dose: 1.0 mg/kg/injection, schedule: Q01DX009 (ip), vehicle: saline 115 % of control | dose: 2.0 mg/kg/injection, schedule: Q01DX009 (ip), vehicle: saline 111 % of control | dose: 4.0 mg/kg/injection, schedule: Q01DX009 (ip), vehicle: saline 107 % of control | dose: 8.0 mg/kg/injection, schedule: Q01DX009 (ip), vehicle: saline 111 % of control | dose: 16.0 mg/kg/injection, schedule: Q01DX009 (ip), vehicle: saline 111 % of control
